Entries after “also recorded” stand apart in the source; their conditions may differ.
Columns and labels:
Neuro-2a cells [1] = assay: Test of relative metabolic activity (MTT) on Neuro-2a cells under normal conditions; assay type: cell-based, mouse; conditions: physiological conditions; 24 h; two concentrations; FIG. 2A
Procedure: (§1) A test based on the metabolic activity of the neurons was performed to evaluate the effect of the compounds of formula (I) on this metabolic activity. This test is based on the use of the tetrazolium salt MTT (3-(4,5-dimethylthiazol-2-yl)-2,5-diphenyltetrazolium bromide). Tetrazolium is reduced by mitochondrial succinate dehydrogenase in active live cells to formazan, a purple-colored precipitate. The amount of precipitate formed is proportional to the metabolic activity present in the culture. Thus, spectroscopic assay of the optical density at 550 nm makes it possible to determine the relative amount of metabolic activity and consequently the mitochondrial activity. This test on cortical neuron cultures was performed with different compounds in reference to Table 2 (DX101, DX243, DX244, DX245, DX249, DX301, DX302 and DX401) used at the same concentration (100 nM).
The same test described in Example 1 was performed on Neuro-2a cells—a mouse neuroblastoma cell line. Under physiological conditions, once cultured and at about 50% confluence, Neuro-2a cells were placed in contact for 24 h with two concentrations of the compounds DX243 and DX245.

Neuro-2a cells [2] = assay: Test of metabolic activity (MTT) on Neuro-2a cells after ethanol (EtOH) intoxication; assay type: cell-based, mouse; conditions: for metabolic activity after EtOH intoxication relative to untreated cells (MTT): 24 h treatment with 100 nM, EtOH 200 mM and 500 mM, FIG. 2B
Procedure: as §1
The same test described in Example 1 was performed on Neuro-2a cells—a mouse neuroblastoma cell line. It was shown that 24 h of intoxication with ethanol (EtOH) at high concentration (500 mM) in this cell line reduced the metabolic activity of these cells (χ=P value <0.0001 relative to the control).

dopaminergic neurons [3] = assay: Mitochondrial dynamics (mitochondrial mass) in dopaminergic neurons treated with MPP+; assay type: cell-based, rat; conditions: MPP+ 48 h; different concentrations during MPP+ and 48 h after removal; FIG. 5
Procedure: (§2) The mitochondrial effects of compound DX243 were tested in a model of dopaminergic neurons treated with MPP+ (1-methyl-4-phenylpyridinium), a mitochondrial toxin that increases mitochondrial stress and reduces the number of mitochondria. MPP+ is known for its deleterious effects on mitochondria (increased mitochondrial stress measured by the amount of cytochrome C, reduced mitochondrial number measured by means of the Mitotracker test). Dopaminergic neurons were obtained from microdissection of the midbrain of rat embryos cultured with Neurobasal™ Medium (Ref. 21103049 ThermoFisher Scientific) supplemented with B27 supplement 50× (Ref. 17504044 ThermoFisher Scientific), penicillin/streptomycin, L-glutamine and also BDNF (brain-derived neurotrophic factor) and GDNF (glial cell-derived neurotrophic factor).
(§3) These neurons were cultured for 5 days and then treated for 48 h with MPP+. These neurons were also exposed to different concentrations of the compound DX243 during the 48 h of MPP+ treatment, and also 48 h after MPP+ removal.

dopaminergic neurons [4] = assay: Mitochondrial stress in dopaminergic neurons treated with MPP+; assay type: cell-based, rat; conditions: 10 nM; FIG. 6
Procedure: as §2, §3

hippocampal neurons = assay: Mitochondrial stress in hippocampal neurons treated with peptide Aβ 1-42; assay type: cell-based; conditions: 1 nM, FIG. 7
Procedure: The mitochondrial effects of compound DX243 were tested in a model of hippocampal neurons treated with peptide Aβ 1-42, this peptide inducing mitochondrial stress (represented by a reduction in mitochondrial surface area).

SHSY5y = assay: Test of mitochondrial dynamics (Mitotracker labeling) on SHSY5Y cell line; assay type: cell-based, human; conditions: 24 h, different concentrations, FIG. 3
Procedure: (§4) A human neuroblastoma cell line (SHSY5y) and also a myoblast cell line (C2C12) were cultured in DMEM™ medium (Ref. 21068028 ThermoFisher Scientific). Once in culture, these two cell lines were treated for 24 h with different concentrations of the compound DX243. A series of images was taken, labeling with Mitotracker™ (Ref. M7512, ThermoFisher Scientific), which highlights and visualizes the mitochondria present in these cells, and enables quantification of their amount.

Neuro-2a cells [5] = assay: MitoTracker study of mitochondria in Neuro-2a cells after ethanol intoxication; assay type: cell-based, mouse; conditions: after 24 h of ethanol intoxication (500 mm); FIG. 2C
[6] = system: mitochondrial fission gene drp1; assay: Inhibition of mitochondrial fission on cochlear explants (qRT-PCR); assay type: cell-based, mice; conditions: 100 nM; 24 h; relative to untreated cochleae; FIG. 4
Procedure: A cochlear explant model was developed. To obtain cochleae, the organ of hearing, in culture, cochleae from 3-day-old mice were microdissected. These cochleae were then placed in DMEM medium with addition of glucose (0.5%), N1 (0.5%), insulin (0.25%) and penicillin (0.1%), for 24 h. 100 nM of the compound DX243 were then added to this culture medium for 24 h. The cochleae were then recovered and the RNA extracted therefrom, so as to be able to analyze the modulation of several genes following treatment with the compound DX243.

C2C12 = assay: Test of mitochondrial dynamics (Mitotracker labeling) on C2C12 cell line; assay type: cell-based; conditions: 24 h, different concentrations, FIG. 3
Procedure: as §4

## CC(C)CCCC(C)[C@H]1CCC2C3C[C@@H](NCCCCNCCCN)[C@@]4(O)C[C@@H](O)CC[C@]4(C)C3CC[C@@]21C (stereo partly drawn) [DX245]
Neuro-2a cells [1]
  metabolic activity of Neuro-2a cells (MTT): increase in the metabolic activity
Neuro-2a cells [2]
  metabolic activity after EtOH intoxication relative to untreated cells (MTT): significantly greater metabolic activity

## CC(C)CCC[C@@H](C)[C@H]1CC[C@H]2[C@@H]3C[C@@H](NCCCNCCCCN)[C@@]4(O)C[C@@H](O)CC[C@]4(C)[C@H]3CC[C@]12C [DX243, 5α-hydroxy-6β-[3-(4-aminobutylamino)propylamino]cholestan-3β-ol]
Dopaminergic neurons [3]
  mitochondrial mass: increasing and restoring mitochondrial mass
Dopaminergic neurons [4]
  mitochondrial stress engendered by MPP+ treatment: reduction in mitochondrial stress
Neuro-2a cells [1]
  metabolic activity of Neuro-2a cells (MTT): increase in the metabolic activity
Hippocampal neurons
  mitochondrial surface area: restoring this decrease in mitochondrial surface area
SHSY5y
  mitochondrial amount (mass), Mitotracker labeling: increase in mitochondrial amount (mass)
Neuro-2a cells [5]
  mitochondrial surface area (MitoTracker): increase in mitochondrial surface area
[6]
  expression of drp1 mRNA (qRT-PCR): reduction in drp1 mRNA; also recorded: inhibition of expression
C2C12
  mitochondrial amount (mass), Mitotracker labeling: increase in mitochondrial amount (mass)
Neuro-2a cells [2]; 24 h EtOH 500 mM, 24 h treatment with 1 nM
  metabolic activity after EtOH intoxication (MTT): partially recovered
Neuro-2a cells [2]
  metabolic activity after EtOH intoxication relative to untreated cells (MTT): significantly greater metabolic activity
